Values quoted from earlier work, collected in patent publication US6783752B2, “Contrast agents” (Amersham Health AS, priority 1996, dated 2004).

Experiments:
[1] = in vivo
coronary blood flow = settings: in vivo

- blood pool half-life [1]: 2 s
SMILES: Nc1ncnc2c1ncn2[C@@H]1O[C@H](CO)[C@@H](O)[C@H]1O [adenosine]
- increase in coronary blood flow in healthy myocardial tissue (coronary blood flow): in excess of fourfold increases in coronary blood flow
